Laboratory results reported in patent US6958350B2, “Chemical compounds” (AstraZeneca AB, priority 2001, dated 2005).

melting point | Compound
191 to 217 °C | O=C(Cc1nnc(Nc2ccccc2)o1)NC1CCN(Cc2ccc(Cl)c(Cl)c2)CC1 [Compound No. 1 of Table I, N-[1-(3,4-Dichlorobenzyl)-piperidin-4-yl]-2-(5-phenylamino-[1,3,4]oxadiazol-2-yl)-acetamide]
191 to 192 °C | O=C(Cc1csc(Nc2ccccc2)n1)NC1CCN(Cc2ccc(Cl)c(Cl)c2)CC1 [Compound No. 1 of Table V, 2-(2-Anilino-1,3-thiazol-4-yl)-N-[1-(3,4-dichlorobenzyl)piperidin-4-yl]acetamide]
154 to 156 °C | O=C(CCc1nnc(Nc2ccccc2Cl)o1)NC1CCN(Cc2ccc(Cl)c(Cl)c2)CC1 [Compound No. 6 of Table I, 3-[5-(2-chloro-phenylamino)-[1,3,4]oxadiazol-2-yl]-N-[1-(3,4-dichloro-benzyl)-piperidin-4-yl]-propionamide]
162 to 163 °C | O=C(CCc1nnc(Nc2ccccc2Cl)o1)NC1CCN(Cc2ccc(F)c(F)c2)CC1 [Compound No. 22 of Table I, 3-[5-(2-chloro-phenylamino)-[1,3,4]oxadiazol-2-yl]-N-[1-(3,4-difluorobenzyl)-piperidin-4-yl]-propionamide]
